Laboratory results reported in publication PMC10269775, “Penicillin-Binding Protein Occupancy Dataset for 18 β-Lactams and 4 β-Lactamase Inhibitors in Neisseria gonorrhoeae” (Microbiology Spectrum, 2023).
In brackets after ≈: the same amount, converted by molar mass. Where two headings read alike, the source gives them in different places.

What was measured:
PBP1 [1] = target: T1, PBP1 (Neisseria gonorrhoeae, UniProt O05131); assay: PBP-binding assay (Bocillin FL) in isolated membrane preparations; conditions: strain ATCC 19424
T1 construct: endogenous in cells; host or cells: N. gonorrhoeae ATCC 19424, isolated membrane preparation
Description: (§1) Bacterial membranes were collected by ultracentrifugation.

PBP1 [2] = target: T2, PBP1 (Neisseria gonorrhoeae, UniProt O05131, A375T/F666S); assay: as above; parameters: species or system Neisseria gonorrhoeae ATCC 49226
T2 construct: endogenous in cells; host or cells: N. gonorrhoeae ATCC 49226, isolated membrane preparation
Description: as §1

[3] = system: N. gonorrhoeae ATCC 49226; assay: MIC, CLSI broth microdilution; type: cell-based, Neisseria gonorrhoeae; conditions: for MIC: strain ATCC 49226; for MIC increase for strain ATCC 49226: ATCC 49226 versus ATCC 19424
[4] = system: N. gonorrhoeae ATCC 19424; assay: MIC, CLSI broth microdilution; type: cell-based; conditions: Neisseria gonorrhoeae, ATCC19424, strain ATCC 19424
PBP2 [5] = target: T3, PBP2 (Neisseria gonorrhoeae, UniProt P08149, H541N); assay: PBP-binding assay (Bocillin FL) in isolated membrane preparations; parameters: species or system Neisseria gonorrhoeae ATCC 19424
T3 construct: endogenous in cells; host or cells: N. gonorrhoeae ATCC 19424, isolated membrane preparation

PBP2 [6] = target: T4, PBP2 (Neisseria gonorrhoeae, UniProt P08149, A510V/A516G/A574V/F504L/H541N/I556V/I566V/K555Q/P552V); assay: biochemical; type: binding, Neisseria gonorrhoeae ATCC 49226
T4 construct: endogenous in cells; host or cells: N. gonorrhoeae ATCC 49226, isolated membrane preparation

[7] = system: N. gonorrhoeae ATCC 19424 and ATCC 49226; assay: MIC, summary over both strains; type: cell-based, Neisseria gonorrhoeae; conditions: for times more active: compared with imipenem
PBP1, PBP2 and PBP3 [8] = target: PBP1, PBP2 and PBP3 (Neisseria gonorrhoeae, UniProt P08149, H541N); type: binding, Neisseria gonorrhoeae ATCC 19424; conditions: read-out: min. IC50 (minimum observed IC50 value); strain ATCC 19424
PBP3 [9] = target: T5, PBP3 (Neisseria gonorrhoeae, UniProt Q5FAB9); conditions: read-out: IC50 PBP3; strain ATCC 49226; membrane preparation, 30 min drug then Bocillin FL
T5 sequence (Q5FAB9 22-469): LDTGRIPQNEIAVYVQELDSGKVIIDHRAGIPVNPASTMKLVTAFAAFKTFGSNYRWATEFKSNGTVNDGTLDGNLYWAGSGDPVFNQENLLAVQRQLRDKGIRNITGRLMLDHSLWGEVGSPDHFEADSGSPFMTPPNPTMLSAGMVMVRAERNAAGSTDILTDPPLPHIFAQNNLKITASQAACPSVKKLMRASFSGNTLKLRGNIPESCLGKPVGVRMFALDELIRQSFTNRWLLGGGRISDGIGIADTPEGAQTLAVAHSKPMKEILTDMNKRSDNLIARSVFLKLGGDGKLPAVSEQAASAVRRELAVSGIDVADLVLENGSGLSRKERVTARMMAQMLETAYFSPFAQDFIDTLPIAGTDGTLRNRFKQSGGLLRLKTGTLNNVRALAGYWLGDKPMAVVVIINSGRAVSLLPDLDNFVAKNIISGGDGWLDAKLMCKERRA

PBP3 [10] = target: T5, PBP3; conditions: read-out: IC50 PBP3; strain ATCC 19424; membrane preparation, 30 min drug then Bocillin FL
PBP1, PBP2 and PBP3 [11] = target: PBP1, PBP2 and PBP3 (Neisseria gonorrhoeae, UniProt P08149, A510V/A516G/A574V/F504L/H541N/I556V/I566V/K555Q/P552V); type: binding, Neisseria gonorrhoeae ATCC 49226; conditions: read-out: min. IC50 (minimum observed IC50 value); strain ATCC 49226
PBP1, PBP2 and PBP3 [12] = target: T6, PBP1, PBP2 and PBP3 (Neisseria gonorrhoeae, UniProt Q5FAB9); type: binding, Neisseria gonorrhoeae ATCC 49226; conditions: read-out: min. IC50 (minimum observed IC50 value); strain ATCC 49226
T6 sequence (Q5FAB9 22-469): T5 sequence (Q5FAB9 22-469)

[13] = membrane preparation, 30 min drug then Bocillin FL, read-out: IC50 PBP1 (converted)
[14] = IC50 PBP1, strain ATCC 49226, membrane preparation, 30 min drug then Bocillin FL
[15] = Neisseria gonorrhoeae, ATCC49226, read-out: MIC
[16] = Neisseria gonorrhoeae, ATCC49226, read-out: MIC (Table S1)
[17] = IC50 PBP2, strain ATCC 19424, membrane preparation, 30 min drug then Bocillin FL
[18] = IC50 PBP2, strain ATCC 49226, membrane preparation, 30 min drug then Bocillin FL
[19] = read-out: IC50 PBP1 (Table S1) (converted)
[20] = IC50 PBP1 (Table S1), strain ATCC 49226
[21] = strain ATCC 19424, membrane preparation, 30 min drug then Bocillin FL, read-out: IC50 PBP2 (converted)

Row | Compound | IC50 (PBP1 [1]; [13]) | IC50 (PBP1 [2]; [14]) | MIC [3, 15] | MIC [3, 16] | MIC ([4]; read-out: MIC) | MIC ([4]; read-out: MIC (Table S1)) | IC50 (PBP2 [5]; [17]) | IC50 (PBP2 [6]; [18]) | IC50 (PBP1, PBP2 and PBP3 [8]) | IC50 (PBP3 [9]) | IC50 (PBP3 [10]) | IC50 (PBP1, PBP2 and PBP3 [11]) | further results
1 | C[C@@H](O)[C@H]1C(=O)N2C(C(=O)O)=C(SCCN=CN)C[C@H]12 [IPM, imipenem] | 1.34 µM | 2.67 µM | 0.064 mg/L (≈ 0.214 µM) | 0.064 mg/L (≈ 0.214 µM) | 0.032 mg/L (≈ 0.107 µM) | 0.032 mg/L (≈ 0.107 µM) | 0.234 µM | 0.568 µM | – | – | – | – | MIC ([7]; Neisseria gonorrhoeae, across the two ATCC strains): 0.032 to 0.064 mg/L (≈ 0.107 to 0.214 µM)
2 | C[C@]1(Cn2ccnn2)[C@H](C(=O)O)N2C(=O)C[C@H]2S1(=O)=O [TZ, tazobactam] | 63.3 µM | 83.3 µM | 1 mg/L (≈ 3.33 µM) | 1 mg/L (≈ 3.33 µM) | 0.125 mg/L (≈ 0.416 µM) | 0.125 mg/L (≈ 0.416 µM) | 3.56 µM | 4.8 µM | 3.56 µM | 18.9 µM | 15.7 µM | 4.8 µM | IC50 (PBP1 [1]; [19]): 64 µM; IC50 (PBP1 [2]; [20]): 83.6 µM
3 | CO[C@@]1(NC(=O)Cc2cccs2)C(=O)N2C(C(=O)O)=C(COC(N)=O)CS[C@@H]21 [FOX, cefoxitin] | 1.36 µM | 2.13 µM | 0.5 mg/L (≈ 1.17 µM) | 0.5 mg/L (≈ 1.17 µM) | 0.25 mg/L (≈ 0.585 µM) | 0.25 mg/L (≈ 0.585 µM) | 0.912 µM | > 4.68 µM | – | – | – | – | –
4 | CC1(C)S[C@@H]2[C@H](NC(=O)[C@H](C(=O)O)c3ccsc3)C(=O)N2[C@H]1C(=O)O [TIC, ticarcillin] | > 5.2 µM | > 5.2 µM | 0.5 mg/L (≈ 1.3 µM) | 0.5 mg/L (≈ 1.3 µM) | 0.016 mg/L (≈ 0.0416 µM) | 0.016 mg/L (≈ 0.0416 µM) | – | > 5.2 µM | 0.494 µM | 1.64 µM | 2.73 µM | – | IC50 (PBP2 [5]; [21]): 0.494 µM; IC50 (PBP1, PBP2 and PBP3 [12]): 1.64 µM
5 | CO/N=C(\C(=O)N[C@@H]1C(=O)N2C(C(=O)[O-])=C(C[N+]3(C)CCCC3)CS[C@H]12)c1csc(N)n1 [FEP, cefepime] | > 4.16 µM | > 4.16 µM | 0.032 mg/L (≈ 0.0666 µM) | 0.032 mg/L (≈ 0.0666 µM) | 0.008 mg/L (≈ 0.0166 µM) | 0.008 mg/L (≈ 0.0166 µM) | – | – | – | – | – | – | –
6 | C[C@@H](O)[C@H]1C(=O)N2C(C(=O)O)=C(S[C@@H]3CN[C@H](C(=O)N(C)C)C3)[C@H](C)[C@H]12 [MEM, meropenem] | 0.626 µM | 1.17 µM | 0.016 mg/L (≈ 0.0417 µM) | 0.016 mg/L (≈ 0.0417 µM) | 0.008 mg/L (≈ 0.0209 µM) | 0.008 mg/L (≈ 0.0209 µM) | – | – | – | – | – | – | IC50 (PBP2 [5]; IC50 PBP2 (Table S1), strain ATCC 19424): 0.104 µM; times more active [7]: 8 times
7 | Cn1c(N)c(NC(=O)NCCN)c[n+]1CC1=C(C(=O)O)N2C(=O)[C@@H](NC(=O)/C(=N\OC(C)(C)C(=O)[O-])c3nsc(N)n3)[C@H]2SC1 [TOL, ceftolozane] | > 3 µM | > 3 µM | 0.25 mg/L (≈ 0.375 µM) | 0.25 mg/L (≈ 0.375 µM) | 0.032 mg/L (≈ 0.048 µM) | 0.032 mg/L (≈ 0.048 µM) | 0.06 µM | 0.405 µM | 0.06 µM | > 3 µM | > 3 µM | 0.405 µM | MIC [3]: 0.250 mg/L (≈ 0.375 µM)
8 | C[C@@H](O)[C@H]1C(=O)N2C(C(=O)O)=C(S[C@@H]3CN[C@H](C(=O)Nc4cccc(C(=O)O)c4)C3)[C@H](C)[C@H]12 [ETP, ertapenem] | 1.01 µM | 1.2 µM | 0.008 mg/L (≈ 0.0168 µM) | 0.008 mg/L (≈ 0.0168 µM) | 0.004 mg/L (≈ 0.00841 µM) | 0.004 mg/L (≈ 0.00841 µM) | 0.0841 µM | 0.021 µM | – | – | – | – | times more active [7]: 8 times
9 | CO/N=C(\C(=O)N[C@@H]1C(=O)N2C(C(=O)O)=C(CSc3nc(=O)c(=O)[nH]n3C)CS[C@H]12)c1csc(N)n1 [CRO, ceftriaxone] | 3.37 µM | 3.43 µM | 0.002 mg/L (≈ 0.00361 µM) | 0.008 mg/L (≈ 0.0144 µM) | 0.004 mg/L (≈ 0.00721 µM) | 0.004 mg/L (≈ 0.00721 µM) | – | – | – | – | – | – | –
10 | CCO/N=C(\C(=O)N[C@@H]1C(=O)N2C(C(=O)[O-])=C(Sc3nc(-c4cc[n+](C)cc4)cs3)CS[C@H]12)c1nsc(N)n1 [CPT, ceftaroline] | > 3.31 µM | > 3.31 µM | 0.5 mg/L (≈ 0.827 µM) | 0.5 mg/L (≈ 0.827 µM) | 0.032 mg/L (≈ 0.0529 µM) | 0.032 mg/L (≈ 0.0529 µM) | 0.248 µM | 0.347 µM | 0.248 µM | 2.13 µM | 3.14 µM | 0.347 µM | MIC increase for strain ATCC 49226 [3]: 16 fold
11 | CC1(C)S[C@@H]2[C@H](NC(=O)C(C(=O)O)c3ccccc3)C(=O)N2[C@H]1C(=O)O (some centres unmarked) [CAR, carbenicillin] | > 5.29 µM | – | 0.5 mg/L (≈ 1.32 µM) | 0.5 mg/L (≈ 1.32 µM) | 0.032 mg/L (≈ 0.0846 µM) | 0.032 mg/L (≈ 0.0846 µM) | 0.344 µM | – | 0.344 µM | – | – | – | IC50 (PBP1 [2]; [20]): > 5.29 µM; IC50 (PBP2 [6]; IC50 PBP2 (Table S1), strain ATCC 49226): > 5.29 µM
12 | CCN1CCN(C(=O)N[C@@H](C(=O)N[C@@H]2C(=O)N3[C@@H]2SC(C)(C)[C@@H]3C(=O)O)c2ccccc2)C(=O)C1=O [PIP, piperacillin] | > 3.86 µM | > 3.86 µM | – | 0.125 mg/L (≈ 0.242 µM) | 0.001 mg/L (≈ 0.00193 µM) | 0.001 mg/L (≈ 0.00193 µM) | – | 0.0193 µM | 0.0386 µM | – | – | 0.0193 µM | MIC increase for strain ATCC 49226 [3]: 125 fold; IC50 (PBP2 [5]; [21]): 0.0386 µM
13 | CC1(C)S[C@@H]2[C@H](/N=C/N3CCCCCC3)C(=O)N2[C@H]1C(=O)O [MEC, amdinocillin] | 313 µM | – | 8 mg/L (≈ 24.6 µM) | 8 mg/L (≈ 24.6 µM) | 1 mg/L (≈ 3.07 µM) | 1 mg/L (≈ 3.07 µM) | 4.09 µM | – | 4.09 µM | – | – | – | IC50 (PBP1 [1]; [19]): 314 µM
